# Data from patent publication US6225478A, “Iridoid derivatives and neovascularization inhibitors containing the same as active ingredient” (Tsumura & Co., priority 1999, dated 2001).
# What was measured:
# [1] = system: HUFEC; assay: Cell Migration Assay (CMA) Test, inhibitory rate with control (-) correction; assay type: cell-based, human; details: Homo sapiens, 24 h, 125 μl of 0.32 mM sample solution in 4.0 ml medium, 80% or more = remarkable
# Protocol: (§1) Samples were prepared using the present compounds of Compound No. I-60 through I-315. More specifically, 32 μl of a 20 mM sample solution dissolved in dimethylsulfoxide (DMSO) were removed and brought to a volume of 1 ml with phosphate-buffered saline (PBS) to prepare a sample solution having a concentration of 0.32 mM (containing 3.2% DMSO).
# After disseminating the 7th subculture of […] obtained from the first generation at 4 ml/well (3.0×10^5 cells/well) in a collagen-coated 6-well plate (NUNC), the cells were cultured for 48 hours at 37° C. in the presence of 5% CO2. The cells reached nearly a completely confluent state as a result of this culturing.
# A double-edged, disposable razor blade was divided into four sections, of which one of those sections was pinched between a pair of forceps. Using this piece of razor blade, the cell surface in the above confluent state was scraped off.
# After washing the surface of the wells from which the cells had been scraped off with medium, 4.0 ml of fresh M199 (2+) medium were placed in the wells. 4.0 ml of M199 medium were added to the control (-) well.
# 125 μl of sample solution (0.32 mM, containing 3.2% dimethylsulfoxide) were added to the wells.
# 125 μl of PBS solution containing 3.2% dimethylsulfoxide were added to the control wells instead of sample. The cells were cultured for 24 hours at 37° C. in the presence of 5% CO2. After discarding the culture liquid, the cells were fixed for 30 minutes with methanol. Next, after […] the cells for 4 hours with Giemsa stain, the plates were washed with tap water and air dried.
# Measurement of cell migration was performed by microscopically counting the number of cells that had newly migrated within the range of a 1 mm×1 mm block. […] The total number of cells counted in blocks 1 through 5 were then totaled to determine the overall total number of cells. Four fields were counted for each well.
# Evaluation was performed determining the cell migration inhibitory rate (%) according to the following equation.
# Inhibitory rate=100-((number of migrating cells to which sample was added-number of migrating cells of control (-))×100/(number of migrating cells of control (+)-number of migrating cells of control (-)))
# If this inhibitory rate was 80% or more, cell migration was assessed as being remarkable.
# [2] = system: human umbilical-vein endothelial cells (HUVEC); assay: Tube Formation Assay (TFA) Test, HUVEC in collagen gel; assay type: cell-based; details: Homo sapiens, HUVEC, Tables 75-83; 0.32 mM sample solution; method as for Compounds 1 through 60; read-out: TFA Inhibition rate (%)
# Protocol: Furthermore, the sample liquids of compounds used in the CPA and CMA tests were prepared in the manner described below. Firstly, after weighing out each compound, a calculated amount of DMSO was added. After dissolving the compound in the DMSO, phosphate buffered physiological saline (PBS (-)) was added to bring the sample concentration to 1 mg/ml in PBS (-). The amount of DMSO used to dissolve the compounds was adjusted in advance to that the concentration of DMSO at that time was 5%. The resulting liquids were diluted 10-fold with 5% DMSO-PBS (-) solution to prepare sample solutions having a concentration of 0.1 mg/ml. In the TFA test, 320 μl of the prepared 1 mg/ml sample solutions were removed followed by addition of 680 μl of PBS (-) to prepare samples having a concentration of […]. Moreover, 100 μl of this solution was removed followed by addition of 900 μl of PBS (-) to dilute 10-fold and prepare samples having a concentration of 1 μg/ml. P [Cell Proliferation Assay (CPA) Test]
# To begin with, 8 volumes of Type 1-A cell matrix (manufactured by Gibco Co.), 1 volume of 10×M119, and 1 volume of reconstituted buffer [200 mM HEPES, 0.05 N sodium hydroxide, 260 mM sodium bicarbonate] were slowly mixed under cooling with ice while avoiding bubbling to form a collagen gel. This collagen gel was distributed in a NUNC 24-well plate at 310 μl/well followed by allowing to stand undisturbed for 2 hours at 37° C. to solidify the gel.
# Next, the 7th subculture of HUVEC (1×10^5 cells/ml) obtained from the first generation in the same manner as above were disseminated at 500 μl/well. The cells were cultured for 2 hours at 37° C. to allow the cells to make contact with the collagen. After then removing the medium by aspiration, 50 μl of sample solution were added followed by addition of 310 μl/well of freshly prepared collagen gel and culturing for 1 hour and 10 minutes at 37° C. to solidify the double-layer gel.
# 1 ml/well of M-199 medium containing 20% FCS, 30 ng /ml of b-FGF and 0.1 μM PMA were added to the wells followed by culturing for 20 hours at 37° C. in the presence of 5% CO2.
# Measurement of the lengths of the formed tubes was performed using the public domain NIH Image with a computer.
# Evaluation was performed by calculating the inhibition rate (%) of tube formation according to the following formula.
# Inhibition rate (%)=100-((formed tube length in presence of sample-formed tube length in presence of control (-))×100/(formed tube length in presence of control (+)-formed tube length in presence of control (-)))
# as §1
# The testing method used for these compounds was the same as that used for the compounds of Compound No. 1 through 60 previously described.
Compound,inhibition at 320 µM (stock) [1],inhibition at 320 µM (stock) [2]
CCOC(=O)CCCNC(=O)O[C@@H]1OC=C(C(=O)OC)[C@H]2CC=C(C)[C@@H]12 [I-135],23.4%,4.7%
COC(=O)C1=CO[C@@H](OC(=O)N(C)C)[C@@H]2C(C)=CC[C@H]12 [I-136],8.3%,15.6%
CONC(=O)O[C@@H]1OC=C(C(=O)OC)[C@H]2CC=C(C)[C@@H]12 [I-137],3.3%,6.4%
COC(=O)C1=CO[C@@H](OC(=O)N(CCO)CCO)[C@@H]2C(C)=CC[C@H]12 [I-138],3.5%,2.5%
COC(=O)C1=CO[C@@H](OC(=O)NCC2CC2)[C@@H]2C(C)=CC[C@H]12 [I-139],9.7%,25.6%
COC(=O)C1=CO[C@@H](OC(=O)N2CC=C(c3ccccc3)CC2)[C@@H]2C(C)=CC[C@H]12 [I-140],3.3%,5.2%
CCOc1ccccc1N1CCN(C(=O)O[C@@H]2OC=C(C(=O)OC)[C@H]3CC=C(C)[C@@H]23)CC1 [I-141],12.5%,23.1%
COC(=O)C1=CO[C@@H](OC(=O)NCCCCl)[C@@H]2C(C)=CC[C@H]12 [I-142],9.8%,3.7%
COC(=O)C1=CO[C@@H](OC(=O)NCc2ccc(Br)cc2)[C@@H]2C(C)=CC[C@H]12 [I-143],5.9%,8.1%
COC(=O)CNC(=O)O[C@@H]1OC=C(C(=O)OC)[C@H]2CC=C(C)[C@@H]12 [I-144],31.2%,7.5%
COC(=O)C1=CO[C@@H](OC(=O)NC2Cc3ccccc3C2)[C@@H]2C(C)=CC[C@H]12 [I-145],27.3%,17.5%
COC(=O)C1=CO[C@@H](OC(=O)NCCc2ccc(O)c(OC)c2)[C@@H]2C(C)=CC[C@H]12 [I-146],17.2%,7.8%
COC(=O)C1=CO[C@@H](OC(=O)NC(CO)CO)[C@@H]2C(C)=CC[C@H]12 [I-147],41%,10.3%
COC(=O)C1=CO[C@@H](OC(=O)N2CCC2)[C@@H]2C(C)=CC[C@H]12 [I-148],3.4%,5.1%
COC(=O)C1=CO[C@@H](OC(=O)N2CCN(c3ccccc3F)CC2)[C@@H]2C(C)=CC[C@H]12 [I-149],7.5%,8.7%
COC(=O)C1=CO[C@@H](OC(=O)NCCSCc2ccccc2)[C@@H]2C(C)=CC[C@H]12 [I-150],5.4%,32.3%
CCNC(=O)O[C@@H]1OC=C(C(=O)OC)[C@H]2CC=C(C)[C@@H]12 [I-151],35.9%,38.1%
COC(=O)C1=CO[C@@H](OC(=O)NC(=O)CCl)[C@@H]2C(C)=CC[C@H]12 [I-152],33.7%,51%
COC(=O)C1=CO[C@@H](OC(=O)NC(=O)c2ccccc2)[C@@H]2C(C)=CC[C@H]12 [I-153],22.3%,19%
COC(=O)C1=CO[C@@H](OC(=O)NC(C)C)[C@@H]2C(C)=CC[C@H]12 [I-155],19.9%,45.7%

Compound,inhibition at 320 µM (stock) [1],inhibition at 320 µM (stock) [2]
COC(=O)C1=CO[C@@H](OC(=O)Nc2ccc(F)cc2)[C@@H]2C(C)=CC[C@H]12 [I-156],5.8%,10.9%
COC(=O)C1=CO[C@@H](OC(=O)Nc2c(F)cccc2F)[C@@H]2C(C)=CC[C@H]12 [I-157],7.7%,12.9%
COC(=O)C1=CO[C@@H](OC(=O)Nc2ccccc2F)[C@@H]2C(C)=CC[C@H]12 [I-158],7.3%,8.5%
COC(=O)C1=CO[C@@H](OC(=O)Nc2ccc(Br)cc2)[C@@H]2C(C)=CC[C@H]12 [I-159],39.5%,9.8%
COC(=O)C1=CO[C@@H](OC(=O)Nc2cccc(C(F)(F)F)c2)[C@@H]2C(C)=CC[C@H]12 [I-160],6.3%,13.8%
COC(=O)C1=CO[C@@H](OC(=O)Nc2ccc(OC)cc2)[C@@H]2C(C)=CC[C@H]12 [I-161],14.4%,8.2%
COC(=O)C1=CO[C@@H](OC(=O)Nc2ccc(Cl)cc2)[C@@H]2C(C)=CC[C@H]12 [I-162],8.9%,7.5%
COC(=O)C1=CO[C@@H](OC(=O)Nc2ccc(Cl)c(Cl)c2)[C@@H]2C(C)=CC[C@H]12 [I-163],5.6%,11.5%
COC(=O)C1=CO[C@@H](OC(=O)Nc2ccc(Cl)cc2C(F)(F)F)[C@@H]2C(C)=CC[C@H]12 [I-164],5.9%,2.5%
COC(=O)C1=CO[C@@H](OC(=O)Nc2ccc(OC(F)(F)F)cc2)[C@@H]2C(C)=CC[C@H]12 [I-165],12.5%,7.5%
COC(=O)C1=CO[C@@H](OC(=O)Nc2cccc(C#N)c2)[C@@H]2C(C)=CC[C@H]12 [I-166],8.7%,9.1%
CCOC(=O)c1ccc(NC(=O)O[C@@H]2OC=C(C(=O)OC)[C@H]3CC=C(C)[C@@H]23)cc1 [I-167],4.1%,5.1%
COC(=O)C1=CO[C@@H](OC(=O)Nc2ccc([N+](=O)[O-])cc2)[C@@H]2C(C)=CC[C@H]12 [I-168],17.2%,4.2%
COC(=O)C1=CO[C@@H](OC(=O)Nc2ccc(C)cc2)[C@@H]2C(C)=CC[C@H]12 [I-169],12.6%,13.7%
COC(=O)C1=CO[C@@H](OC(=O)Nc2ccccc2)[C@@H]2C(C)=CC[C@H]12 [I-170],6.7%,12.9%
COC(=O)C1=CO[C@@H](OC(=O)Nc2cccc(C(C)=O)c2)[C@@H]2C(C)=CC[C@H]12 [I-171],3%,5.8%
COC(=O)C1=CO[C@@H](OC(=O)Nc2ccc(SC)cc2)[C@@H]2C(C)=CC[C@H]12 [I-172],5.5%,8.7%
COC(=O)C1=CO[C@@H](OC(=O)NCCCl)[C@@H]2C(C)=CC[C@H]12 [I-173],108%,11.4%
CNC(=O)O[C@@H]1OC=C(C(=O)OC)[C@H]2CC=C(C)[C@@H]12 [I-174],12.9%,67%
CCCCCCNC(=O)O[C@@H]1OC=C(C(=O)OC)[C@H]2CC[C@H](C)[C@@H]12 [I-175],19.5%,7.5%
